Reference: paper PMC12458359 (bioRxiv, 2025)
Like-named read-outs stand apart in the source and are kept apart here. Blank lines part the entries; values can stand above or below the molecule they belong to.

Legend:
Test in all cases: radiometric enzymatic assay
Format in all cases: biochemical
[1] = target: T1, CK1γ2 (Homo sapiens, UniProt P78368); settings: read-out: Enzymatic IC50 CK1γ2
[2] = target: T2, CK1γ1 (Homo sapiens, UniProt Q9HCP0); settings: read-out: Enzymatic IC50 CK1γ1
[3] = target: T1, CK1γ2; settings: read-out: Enzymatic IC50 CK1γ2; remark: listed apart in the source
[4] = target: T2, CK1γ1; settings: read-out: Enzymatic IC50 CK1γ1; remark: listed apart in the source
[5] = target: T2, CK1γ1; settings: read-out: NB IC50 CK1γ3
[6] = target: T1, CK1γ2; settings: read-out: Enzymatic IC50 CK1γ2; remark: listed apart in the source
[7] = target: T1, CK1γ2; settings: read-out: Enzymatic IC50 CK1γ2; remark: listed apart in the source
[8] = target: T2, CK1γ1; settings: read-out: Enzymatic IC50 CK1γ1; remark: listed apart in the source

T2 sequence (Q9HCP0 whole entry): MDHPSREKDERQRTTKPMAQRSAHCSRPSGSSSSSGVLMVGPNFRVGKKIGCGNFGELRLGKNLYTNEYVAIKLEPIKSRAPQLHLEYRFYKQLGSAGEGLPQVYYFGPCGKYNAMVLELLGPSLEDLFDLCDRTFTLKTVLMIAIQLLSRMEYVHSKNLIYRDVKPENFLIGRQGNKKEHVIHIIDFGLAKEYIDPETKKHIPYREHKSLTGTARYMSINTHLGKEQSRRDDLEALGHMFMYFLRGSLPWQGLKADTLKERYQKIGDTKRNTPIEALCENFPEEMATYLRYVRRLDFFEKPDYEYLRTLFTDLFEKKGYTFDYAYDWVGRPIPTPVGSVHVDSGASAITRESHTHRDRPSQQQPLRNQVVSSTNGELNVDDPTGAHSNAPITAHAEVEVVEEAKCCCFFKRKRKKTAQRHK
T1 sequence (P78368 whole entry): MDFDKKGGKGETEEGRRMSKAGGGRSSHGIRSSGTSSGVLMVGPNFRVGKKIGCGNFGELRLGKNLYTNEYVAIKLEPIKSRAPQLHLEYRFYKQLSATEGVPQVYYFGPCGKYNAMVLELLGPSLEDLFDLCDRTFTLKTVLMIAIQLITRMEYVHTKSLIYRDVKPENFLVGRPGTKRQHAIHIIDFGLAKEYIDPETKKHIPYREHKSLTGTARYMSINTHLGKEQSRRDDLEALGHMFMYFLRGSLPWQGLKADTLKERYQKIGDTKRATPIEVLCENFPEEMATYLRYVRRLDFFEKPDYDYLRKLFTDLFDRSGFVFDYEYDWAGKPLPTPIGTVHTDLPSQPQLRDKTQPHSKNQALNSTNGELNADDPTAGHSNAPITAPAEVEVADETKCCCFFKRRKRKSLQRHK

IC50 [1]: 7 nM | IC50 [2]: 28 nM
SMILES: N#Cc1ccc2nc(Nc3ccc(N4CCOCC4)c(Cl)c3)[nH]c2c1 [compound 14, 2-((3-chloro-4-morpholinophenyl)amino)-1H-benzo[d]imidazole-6-carbonitrile]

IC50 [3]: 10 nM | IC50 [4]: 40 nM
SMILES: N#Cc1ccc2nc(Nc3ccc(N4CCOCC4)c(Br)c3)[nH]c2c1 [compound 15, 2-((3-bromo-4-morpholinophenyl)amino)-1H-benzo[d]imidazole-6-carbonitrile]

IC50 [5]: 30 nM | IC50 [6]: 9 nM
SMILES: N#Cc1ccc2[nH]c(Nc3ccc(N4CCCCC4)c(Cl)c3)nc2c1 [compound 20, 2-((3-chloro-4-(piperidin-1-yl)phenyl)amino)-1H-benzo[d]imidazole-5-carbonitrile]

IC50 [7]: 14 nM | IC50 [8]: 36 nM
SMILES: CN1CCN(c2ccc(Nc3nc4ccc(C#N)cc4[nH]3)cc2Cl)CC1 [compound 21, 2-((3-chloro-4-(4-methylpiperazin-1-yl)phenyl)amino)-1H-benzo[d]imidazole-6-carbonitrile]
